Experimental data: US9320723B2, “Methods of treating thyroid eye disease” (University of Rochester, priority 2010, dated 2016)

Key:
[1] = system: human orbital fibroblasts; experiment: qRT-PCR of HAS mRNA after PGD2 or BW245C; assay type: cell-based; details: 5 μM PGD2, 2 hours
Description: (§1) RNA was isolated from orbital fibroblasts or T cells using an RNeasy Mini kit (Qiagen). RNA was reverse transcribed to cDNA using iScript cDNA synthesis kit (Bio-Rad) and diluted 5-fold in RNase-free H2O. Forward and reverse primers for each gene are shown in Table I. RT-PCR: The PCR reaction was performed using Qiagen Fast Cycling PCR kit for 30 cycles in a Bio-Rad thermal cycler. The PCR product was visualized on a 5% acrylamide gel stained with ethidium bromide. Amplifications without reverse transcriptase were carried out as negative controls. qRT-PCR: qRT-PCR was performed in a Bio-Rad iCycler containing B-R SYBR Green SuperMix for IQ (Quanta Biosciences, Gaithersburg, Md.). Efficiency of the amplification was determined to be >90%.
(§2) Amplification of 7S ribosomal RNA was carried out for each cDNA (in triplicate) for normalization. Threshold cycle number (Ct) of amplification in each sample was determined by Bio-Rad software and the relative mRNA abundance was calculated as the Ct for amplification of a gene-specific cDNA minus average Ct for 7S, expressed as a power of 2; i.e., 2^ΔCt.

[2] = system: human orbital fibroblasts (OF1 and OF2); experiment: Agarose gel electrophoresis of HA in conditioned media; assay type: cell-based; details: 5 μM PGD2, 18 hours
Description: Fibroblasts were cultured to confluence in 10 cm^2 dishes in RPMI containing 10% FBS, followed by RPMI with 2% FBS for 3 days. Fibroblasts were then treated with 5 μM PGD2 or control (DMSO) for 18 hours. Cell culture supernatant was centrifuged (5 min at 8,000×g at 4° C.) and half of the sample digested with 1 TRU/ml Streptomyces hyaluronidase (Sigma) at 37° C. for 4 hours; the remainder of the sample was mock-digested. Following digestion with proteinase K (120 μg/ml) (Qiagen, Valencia, Calif.) at 37° C. for 4 hours, the samples were concentrated using Vivaspin 10,000 Da cut-off ultrafiltration spin column (Sartorius Stedim Biotech, Goettingen, Germany), washed with PBS and analyzed by 1% agarose electrophoresis. Select-HA HiLadder (Hyalose LLC, Oklahoma City, Okla.) and blue dextran (Sigma; molecular weight 2×10^6 Da) were also run as standards. The gel was stained with 0.005% Stains-All (Sigma) in 50% ethanol overnight at room temperature before being scanned on an HP scanner.

[3] = system: orbital fibroblasts; experiment: Measurement of intracellular cAMP (TR-FRET immunoassay); assay type: cell-based, human; details: PGD2 5 μM, BW245C 10 μM, up to 60 minutes
Description: cAMP levels were quantified using a time-resolved fluorescence resonance energy transfer (TR-FRET) immunoassay from Perkin Elmer (Waltham, Mass.) according to the manufacturer's protocol. Briefly, orbital fibroblasts were detached with a non-enzymatic cell dissociation solution (Versene, Invitrogen) and re-suspended in Stimulation Buffer (pH 7.4; 1×HBSS buffer containing 5 mmol/L HEPES buffer and 0.01%-0.1% BSA) containing 0.5 mM IBMX and labeled with the Alexa Fluor® 647-labeled anti-cAMP antibody. Finally, the cells were incubated with drugs at the indicated times. Following addition of the detection buffer, the amount of cAMP signal was measured.

[4] = system: human orbital fibroblasts; experiment: HA ELISA of culture medium of orbital fibroblasts treated with prostaglandins or drugs; assay type: cell-based; details: 18 hours, strains OF1 and OF2
Source text: Orbital fibroblasts: Primary orbital fibroblasts were isolated from TED patients undergoing orbital decompression surgery. The protocols for orbital biopsy and blood sample, described below, were approved by the Internal Review Board and informed, written consent was obtained from all patients. […] Fibroblasts were characterized by their adherent morphology, expression of vimentin and types I and III collagen and absence of CD45, factor VIII or cytokeratin. Fibroblasts were used at the earliest passage possible (between passages 4 to 10). Human T cells: Lymphocytes were isolated from 60 ml of peripheral blood obtained during orbital decompression surgery. Whole blood was separated over a Ficoll-Paque Plus Gradient (Amersham Biosciences, Piscataway, N.J.) to obtain peripheral blood mononuclear cells. T cells were enriched using CD3/CD28 T cell Expander beads (Invitogen). […] After that, 50 U/ml of recombinant interleukin-2 (rIL-2) was added to the culture and incubated for another 2-3 days. On day 5, cells were diluted to a concentration of 0.5×10^6 cells/ml in medium containing 50 U/ml rIL-2 and incubated for an additional 3-7 days. Cellular purity was assessed using an anti-CD3-PE antibody (BD Biosciences, San Jose, Calif.) and analyzed on a FACSCalibur flow cytometer (BD Biosciences).
Aliquots of culture medium were removed at indicated time points, centrifuged (5 min, 8,000×g at 4° C.) and HA levels quantified by enzyme-linked immunosorbent assay (ELISA) according to the manufacturer's protocol (R&D Systems). Briefly, samples were incubated in HA-binding protein (HABP)-coated microwells, allowing HA in samples to react with the immobilized HABP. After the removal of unbound molecules by washing, biotinylated-HABP was added to the microwells. Following a second wash, streptavidin-conjugated to horseradish peroxidase was added. After the last wash, the chromogenic substrate was added and HA levels were determined using a Varioskan Flash plate reader (Thermo Fisher Scientific, Milford, Mass.).

[5] = system: orbital fibroblast strains OF1 and OF2; experiment: qRT-PCR of hyaluronidase mRNA (HYAL1-3); assay type: cell-based, human; details: 5 μM PGD2, 4 hours
Description: as §1, §2

[6] = system: human orbital fibroblasts; details: previously reported (Feldon et al. 2006); cited from earlier work

In the case of `CCCCC[C@H](O)/C=C/[C@H]1C(=O)C[C@H](O)[C@@H]1C/C=C\CCCC(=O)O` [PGD2], the “HAS1, HAS2 and HAS3 mRNA” value [1] is reported as “the mRNA for all three HAS isoforms increased significantly”, the “increase in HAS1 mRNA” value ([1]; compared to time 0) is reported as 2807±213 and the “HA in conditioned media (agarose gel)” value [2] is reported as “increased HA compared with vehicle”. The “intracellular cAMP production” value [3] was “significantly increased intracellular cAMP production within 15 to 30 minutes”, the “concentration yielding the largest induction of HA” value [4] was 5 µM and the “HA synthesis (HA ELISA)” value ([4]; increasing concentrations) was “significantly increased HA synthesis by both fibroblast strains in a dose-dependant manner”. For the same molecule, the “HYAL1, HYAL2 and HYAL3 mRNA” value ([5]; strain OF1) was “significant induction in HYAL1, HYAL2 and HYAL3 mRNA”, the “hyaluronidase mRNA expression” value ([5]; strain OF2) was “failed to significantly increase hyaluronidase mRNA expression” and the “adipogenesis in human orbital fibroblasts” value [6] was “induce adipogenesis”.
